Measurements as given in article PMC9810167, “Novel dual LSD1/HDAC6 inhibitor for the treatment of cancer” (PLOS ONE, 2023).
Where two headings read alike, the source gives them in different places.

Assays:
[1] = tested on: HEL 92.1.7; assay: Cell proliferation assay (Alamar Blue); type: cell-based, human; conditions: for EC50: Homo sapiens
Description: (§1) Cells were seeded in NUNC 96-well tissue culture plates (Life Technologies) in […] culture medium and incubated at 37°C/ 5% CO2 to adhere to plastic for 18–24 h. […] One set of plates (designated for the 144 h read out) were centrifuged at low speed for 30 seconds, and respective compounds were replenished in fresh media and incubated for another 68–72 h at 37°C/ 5% CO2. […] The inhibition curve was then fitted by plotting % inhibition against log concentration in GraphPad Prism 5.0 (GraphPad Software, Inc.) and the GI50 value of compound was determined. Data are representative of at least two independent experiments.

[2] = biological target: T1, human LSD1 (Homo sapiens, UniProt O60341); assay: Thermal shift assay (SYPRO Orange); type: binding; conditions: protein:compound 1:10; Tm in the absence of compound 43°C
T1 construct: Tm of full length LSD1 protein in the absence of compound was 43°C
Description: (§2) The melting temperature (Tm) of human LSD1 and HDAC8 proteins were determined by fluorescence based thermal shift assay. Reaction mixture containing 0.5 μM protein, 5X SYPRO™ Orange Protein Gel Stain (Thermo Fisher Scientific Cat: S6650), compound at 10-fold excess for hLSD1, 15-fold excess for hHDAC8. The final volume made up with respective protein buffers. All experiments were done in triplicates at 50 μL reaction volume. The samples heated from 15°C to 95°C with an increment of 1°C per 30sec using CFX96™ Real-Time PCR Detection system–C1000 Thermal Cycler (Bio-Rad). Filters custom configured to the optimal excitation (492 nm) and emission (610 nm) wavelengths for SYPRO orange dye. Protein denaturation monitored by the increase in fluorescence signal emitted by SYPRO Orange. The SYPRO Orange binds to the exposed hydrophobic regions of protein undergoing thermal denaturation and corresponding fluorescence emissions are recorded as melt curves. The temperature corresponding to the inflection point, Tm is determined by calculating the first derivative from melt curve using CFX manager 3.1 software (Bio-Rad).

[3] = biological target: hHDAC8 (Homo sapiens, UniProt Q9BY41); assay: Thermal shift assay (SYPRO Orange); type: binding; conditions: protein:compound 1:15; Tm without compound 41°C
Chain of hHDAC8 (Q9BY41 whole entry): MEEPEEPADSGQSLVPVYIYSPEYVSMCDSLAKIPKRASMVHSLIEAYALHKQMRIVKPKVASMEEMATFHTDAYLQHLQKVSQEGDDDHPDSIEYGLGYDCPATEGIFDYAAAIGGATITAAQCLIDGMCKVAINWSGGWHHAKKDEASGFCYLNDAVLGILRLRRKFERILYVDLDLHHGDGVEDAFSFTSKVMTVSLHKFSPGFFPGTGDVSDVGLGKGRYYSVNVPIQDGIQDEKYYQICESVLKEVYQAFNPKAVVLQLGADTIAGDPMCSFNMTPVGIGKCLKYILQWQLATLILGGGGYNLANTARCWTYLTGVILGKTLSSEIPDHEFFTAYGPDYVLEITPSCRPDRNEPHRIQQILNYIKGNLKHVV
Description: as §2

[4] = tested on: CD11b; assay: Differentiation marker mRNA by RT-qPCR in HEL 92.1.7 cells; type: cell-based, human; conditions: HEL92.1.7, 3–48 h
Description: (§3) Total RNA was isolated using the TRIzol (Thermo Fisher Scientific, Waltham, MA, USA) reagent according to the manufacturer's instructions. The obtained RNA was reverse-transcribed to synthesize the complementary DNA from RNA using High Capacity cDNA Reverse Transcription Kit (Applied Biosystems, U.S.). DyNAmo ColorFlash SYBR Green qPCR Kit (Thermo Fisher Scientific) was used with cDNA and gene specific primers at a final volume of 10 μL. Real-time quantitative PCR was performed for 40 cycles of 15 s each, at 95°C and 30 s at 60°C, using a CFX96 real time machine (Bio-Rad). All reactions were performed in duplicate and the data was calculated using the delta (delta Ct) method. The relative gene expression levels for a target gene was normalized to the expression of β-actin. All the primer sequences were procured from Eurofins Genomics India Limited. Primer sequences for the analysed genes are as follows: • beta Actin [NT], beta Actin [NT]. Gfi1b [NT], Gfi1b [NT], CD86 [NT], CD86 […], CD11b [NT]

[5] = tested on: GFI1b; assay: as above; type: cell-based, human; conditions: HEL92.1.7, 3–48 h
Description: as §3

[6] = tested on: CD86; assay: as above; type: cell-based, human; conditions: HEL92.1.7, 3–48 h
Description: as §3

[7] = tested on: panel of non-small lung cancer, melanoma, and hepatocellular carcinoma tumor cell lines; assay: Cell proliferation assay, solid tumor cell line panel; type: cell-based; conditions: 144 h; 6 days; range over cell lines; read-out: EC50 values across solid tumor panel
Description: as §1

[8] = tested on: MM1.S xenograft; assay: MM1.S multiple myeloma xenograft model; type: in vivo; conditions: for TGI: 13 d
[9] = biological target: T2, HDAC1 (Homo sapiens, UniProt Q13547); assay: HDAC isoform inhibition assay (Reaction Biology); type: biochemical; conditions: generated at Reaction Biology Corporation
T2 construct: purchased Reaction Biology Corporation (assay run at the CRO)
T2 sequence (Q13547 whole entry, canonical isoform): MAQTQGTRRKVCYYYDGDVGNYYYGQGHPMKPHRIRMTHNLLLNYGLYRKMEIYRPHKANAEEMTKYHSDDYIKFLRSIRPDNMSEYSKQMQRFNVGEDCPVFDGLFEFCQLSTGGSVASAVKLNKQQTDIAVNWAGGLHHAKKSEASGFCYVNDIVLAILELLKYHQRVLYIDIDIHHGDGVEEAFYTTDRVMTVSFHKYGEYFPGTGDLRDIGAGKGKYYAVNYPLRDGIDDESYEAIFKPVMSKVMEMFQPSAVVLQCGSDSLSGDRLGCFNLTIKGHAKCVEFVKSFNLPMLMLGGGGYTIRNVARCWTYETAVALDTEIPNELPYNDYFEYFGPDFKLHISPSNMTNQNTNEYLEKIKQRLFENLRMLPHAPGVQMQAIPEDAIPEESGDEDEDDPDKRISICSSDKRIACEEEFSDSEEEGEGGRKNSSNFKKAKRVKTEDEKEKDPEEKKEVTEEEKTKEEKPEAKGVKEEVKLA

[10] = tested on: HEL92.1.7 xenograft tumors; assay: HEL92.1.7 erythroleukaemia xenograft model; type: in vivo; conditions: for % tumor growth inhibition (TGI): PO, QD, 14 days
[11] = tested on: SKMeI2; assay: Cell proliferation assay (Alamar Blue); type: cell-based; conditions: SKMeI2, Melanoma, 144 h
Description: as §1

[12] = tested on: MM1.R; assay: Cell proliferation assay (Alamar Blue); type: cell-based; conditions: MM.1R, Multiple Myeloma, 144 h
Description: as §1

[13] = tested on: HL60; assay: Cell proliferation assay (Alamar Blue); type: cell-based; conditions: Homo sapiens, HL-60; HL60, Leukemia, 144 h
Description: as §1

[14] = tested on: HT144; assay: Cell proliferation assay (Alamar Blue); type: cell-based; conditions: Homo sapiens, HT-144; HT144, Melanoma, 144 h
Description: as §1

[15] = tested on: THP-1; assay: Cell proliferation assay (Alamar Blue); type: cell-based; conditions: Homo sapiens; THP-1, Leukemia, 144 h
Description: as §1

[16] = tested on: RPMI-7591; assay: Cell proliferation assay (Alamar Blue); type: cell-based; conditions: RPMI-7591, Melanoma, 144 h
Description: as §1

[17] = tested on: OCI-AML3; assay: Cell proliferation assay (Alamar Blue); type: cell-based; conditions: Homo sapiens, OCI-AML-3; OCI-AML3, Leukemia, 144 h
Description: as §1

[18] = tested on: H510A; assay: Cell proliferation assay (Alamar Blue); type: cell-based; conditions: Homo sapiens, NCI-H510A, SCLC, 144 h
Description: as §1

[19] = tested on: H2171; assay: Cell proliferation assay (Alamar Blue); type: cell-based; conditions: Homo sapiens, NCI-H2171; H2171, SCLC, 144 h
Description: as §1

[20] = tested on: WM-266-4; assay: Cell proliferation assay (Alamar Blue); type: cell-based; conditions: Homo sapiens; WM-266-4, Melanoma, 144 h
Description: as §1

[21] = tested on: Hep3B2; assay: Cell proliferation assay (Alamar Blue); type: cell-based; conditions: Homo sapiens, Hep3B; Hep3B2, Hepatocellular Carcinoma, 144 h
Description: as §1

[22] = tested on: Hep-G2; assay: Cell proliferation assay (Alamar Blue); type: cell-based; conditions: Homo sapiens, HepG2; Hep-G2, Hepatocellular Carcinoma, 144 h
Description: as §1

O=C(NO)c1ccc(CCCN2CCC(CN[C@H]3C[C@@H]3c3ccccc3)CC2)cc1 (relative stereo) [JBI-097] was tested, and the “cell growth inhibition reached (plateau)” value ([1]; HEL92.1.7, 6 days of incubation, up to 10 μM) was 100%, the EC50 ([1]; HEL 92.1.7, read-out: anti-proliferative EC50, HEL92.1.7, 3 days (72 h) of incubation) was 0.722 µM and the EC50 ([1]; HEL 92.1.7, Leukemia, 144 h, read-out: EC50, 144hr) was 0.049 µM. The “Tm of LSD1 incubated with compound” value [2] was 55 °C, the “Tm of HDAC8 incubated with compound” value [3] was 47 °C and the “CD11b modulation (mRNA)” value [4] was “strong and sustained up-regulation”. The “GFI1b modulation (mRNA)” value [5] was “strong and sustained up-regulation”, the “CD86 modulation (mRNA)” value [6] was “strong and sustained up-regulation” and the EC50 [7] was 1.06 to 8.09 µM. The TGI ([8]; JBI-097 12.5 mg/kg PO in combination with BTZ (0.5 mg/kg IP BIW)) was 82%, the tolerability ([8]; JBI-097 12.5 mg/kg PO in combination with Pomalidomide) was “well tolerated” and the TGI ([8]; JBI-097 12.5 mg/kg PO in combination with pomalidomide (2.5 mg/kg PO 5x/week)) was 60%. The TGI ([8]; single agent, 12.5 mg/Kg PO QD) was 23%, the IC50 [9] was 3.4 µM and the “% tumor growth inhibition (TGI)” value ([10]; 25 mg/kg) was 76%. For the same molecule, the body weight loss ([10]; 50 mg/kg group, observed in 2 animals) was 5–10%, the “% tumor growth inhibition (TGI)” value ([10]; 50 mg/kg) was 91% and the EC50 [11] was 1.83 µM. For the same molecule, the EC50 [12] was 0.029 µM, the EC50 [13] was 1.5 µM and the EC50 [14] was 3.14 µM. For the same molecule, the EC50 [15] was 0.226 µM, the EC50 [16] was 8.09 µM and the EC50 [17] was 0.03 µM. The EC50 [18] was 1.06 µM, the EC50 [19] was 2.7 µM and the EC50 [20] was 6.83 µM. The EC50 [21] was 1.3 µM and the EC50 [22] was 1.1 µM.
